System: 885724-159-R-J1-PDC KRAS PDC multicell spheroid viability
Assay: Anticancer human tumor 885724-159-R-J1-PDC patient-derived pancreatic adenocarcinoma cell line growth inhibition [KRAS2]
Settings: for IC50: curve of first compound; for viability, T/C: stronger effect = lower value
Procedure, shortened: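 KRAS-mutant tumor cells were grown as spheroids with HUVEC endothelial cells and human MSCs as stroma. Targeted agents were tested alone and with KRAS pathway inhibitors. Doses started at or near clinical Cmax, or 10 microM, descending half-log.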

[1] = second compound 0.1 µM, first compound 0.0316 µM
[2] = second compound 0.1 µM, first compound 0.1 µM
[3] = second compound 0.316 µM, first compound 0.0316 µM
[4] = second compound 0.316 µM, first compound 0.1 µM
[5] = second compound 1 µM, first compound 0.0316 µM
[6] = second compound 1 µM, first compound 0.1 µM
[7] = second compound 3.16 µM, first compound 0.0316 µM
[8] = second compound 3.16 µM, first compound 0.1 µM
[9] = second compound 10 µM, first compound 0.0316 µM
[10] = second compound 10 µM, first compound 0.1 µM
[11] = second compound 0.1 µM, first compound 0.316 µM
[12] = second compound 0.1 µM, first compound 1 µM
[13] = second compound 0.1 µM, first compound 3.16 µM
[14] = second compound 0.1 µM, first compound 10 µM
[15] = second compound 0.316 µM, first compound 0.316 µM
[16] = second compound 0.316 µM, first compound 1 µM
[17] = second compound 0.316 µM, first compound 3.16 µM
[18] = second compound 0.316 µM, first compound 10 µM
[19] = second compound 1 µM, first compound 0.316 µM
[20] = second compound 1 µM, first compound 1 µM
[21] = second compound 1 µM, first compound 3.16 µM
[22] = second compound 1 µM, first compound 10 µM
[23] = second compound 3.16 µM, first compound 0.316 µM
[24] = second compound 3.16 µM, first compound 1 µM
[25] = second compound 3.16 µM, first compound 3.16 µM
[26] = second compound 3.16 µM, first compound 10 µM
[27] = second compound 10 µM, first compound 0.316 µM
[28] = second compound 10 µM, first compound 1 µM
[29] = second compound 10 µM, first compound 3.16 µM
[30] = second compound 10 µM, first compound 10 µM
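Note: spheroids exposed to agents for 7 days before readout.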

Structure (SMILES) | IC50 (second compound 0.1 µM) [nM] | IC50 (second compound 0.316 µM) [nM] | IC50 (second compound 1 µM) [nM] | IC50 (second compound 3.16 µM) [nM] | IC50 (second compound 10 µM) [nM] | viability, T/C [1] [%] | viability, T/C [2] [%] | viability, T/C [3] [%] | viability, T/C [4] [%] | viability, T/C [5] [%] | viability, T/C [6] [%] | viability, T/C [7] [%] | viability, T/C [8] [%] | viability, T/C [9] [%] | viability, T/C [10] [%] | viability, T/C [11] [%] | viability, T/C [12] [%] | viability, T/C [13] [%] | viability, T/C [14] [%] | viability, T/C [15] [%] | other results
CN(C)C/C=C/C(=O)Nc1cc2c(Nc3ccc(F)c(Cl)c3)ncnc2cc1O[C@H]1CCOC1 + CNCc1ccccc1-c1csc(C(C)Nc2nc(C)nc3cc(OC)c(OC)cc23)c1 | > 100 | > 100 | > 100 | 2.35 | < 0.316 | 77.9 | 66.7 | 74 | 63.4 | 70.3 | 67.5 | 71.9 | 38 | 0.22 | 0.25 |  |  |  |  |  | viability, T/C (second compound 0.1 µM, first compound 0.000316 µM): 104%; viability, T/C (second compound 0.1 µM, first compound 0.001 µM): 95.4%; viability, T/C (second compound 0.1 µM, first compound 0.00316 µM): 93.2%; viability, T/C (second compound 0.1 µM, first compound 0.01 µM): 89.8%; viability, T/C (second compound 0.316 µM, first compound 0.000316 µM): 108%; viability, T/C (second compound 0.316 µM, first compound 0.001 µM): 107%; viability, T/C (second compound 0.316 µM, first compound 0.00316 µM): 86.6%; viability, T/C (second compound 0.316 µM, first compound 0.01 µM): 81.7%; viability, T/C (second compound 1 µM, first compound 0.000316 µM): 109%; viability, T/C (second compound 1 µM, first compound 0.001 µM): 104%; viability, T/C (second compound 1 µM, first compound 0.00316 µM): 94.6%; viability, T/C (second compound 1 µM, first compound 0.01 µM): 83.1%; viability, T/C (second compound 3.16 µM, first compound 0.000316 µM): 105%; viability, T/C (second compound 3.16 µM, first compound 0.001 µM): 123%; viability, T/C (second compound 3.16 µM, first compound 0.00316 µM): 0.97%; viability, T/C (second compound 3.16 µM, first compound 0.01 µM): 0.27%; viability, T/C (second compound 10 µM, first compound 0.000316 µM): 0.22%; viability, T/C (second compound 10 µM, first compound 0.001 µM): 0.26%; viability, T/C (second compound 10 µM, first compound 0.00316 µM): 0.18%; viability, T/C (second compound 10 µM, first compound 0.01 µM): 0.15%
COC(=O)c1ccc2c(C(=Nc3ccc(N(C)C(=O)CN4CCN(C)CC4)cc3)c3ccccc3)c(O)[nH]c2c1 + CNCc1ccccc1-c1csc(C(C)Nc2nc(C)nc3cc(OC)c(OC)cc23)c1 | 2550 | 1860 | 2170 | < 31.6 | < 31.6 | 111 | 107 | 108 | 110 | 106 | 115 | 1.59 | 4.08 | 0.26 | 0.2 | 117 | 110 | 36.2 | 1.52 | 107 | viability, T/C [16]: 102%; viability, T/C [17]: 6.06%; viability, T/C [18]: 0.58%; viability, T/C [19]: 107%; viability, T/C [20]: 96.7%; viability, T/C [21]: 27.2%; viability, T/C [22]: 1.19%; viability, T/C [23]: 1.18%; viability, T/C [24]: 0.58%; viability, T/C [25]: 1.26%; viability, T/C [26]: 0.34%; viability, T/C [27]: 0.15%; viability, T/C [28]: 0.33%; viability, T/C [29]: 0.38%; viability, T/C [30]: 0.48%
O=C(c1cc(Cc2n[nH]c(=O)c3ccccc23)ccc1F)N1CCN(C(=O)C2CC2)CC1 + CNCc1ccccc1-c1csc(C(C)Nc2nc(C)nc3cc(OC)c(OC)cc23)c1 | > 10000 | > 10000 | > 10000 | < 31.6 | < 31.6 | 110 | 112 | 107 | 107 | 105 | 112 | 1.34 | 1.56 | 0.23 | 0.26 | 98.4 | 101 | 96.2 | 84.7 | 103 | viability, T/C [16]: 96.4%; viability, T/C [17]: 94.6%; viability, T/C [18]: 81.7%; viability, T/C [19]: 104%; viability, T/C [20]: 95.7%; viability, T/C [21]: 91.9%; viability, T/C [22]: 81.8%; viability, T/C [23]: 0.78%; viability, T/C [24]: 0.88%; viability, T/C [25]: 1%; viability, T/C [26]: 1.09%; viability, T/C [27]: 0.21%; viability, T/C [28]: 0.28%; viability, T/C [29]: 0.28%; viability, T/C [30]: 0.68%

— PubChem BioAssay AID1963861 (Molecular Pharmacology Branch, DTP, NCI, 2024)
